The record followed here is the supplement of paper PMC10307832.

Holding throughout (experiment): relative viability (nuclei count vs DMSO), 5 days (fraction); higher = more cells survive
Compound in the assay “IPA-3 + Palbociclib”: C1=CC=C2C(=C1)C=CC(=C2SSC3=C(C=CC4=CC=CC=C43)O)O [IPA-3] + CC(=O)c1c(C)c2cnc(Nc3ccc(N4CCNCC4)cn3)nc2n(C2CCCC2)c1=O [Palbociclib] (partner 0.5 µM)
The gist of the method:
(§1)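 Medians of duplicate plates are given as relative viability. That measure is the nuclei count in treated wells divided by the count in vehicle wells. Counts were taken on 4× images of lung cancer cell lines in 1536-well plates, 5 days after pin-tool dosing the day after seeding with one drug alone or a fixed anchor-drug dose plus five library-drug doses (not always all listed) in √10 steps.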

Compound in the assay “IPA-3 + Dasatinib”: C1=CC=C2C(=C1)C=CC(=C2SSC3=C(C=CC4=CC=CC=C43)O)O [IPA-3] + Cc1nc(Nc2ncc(C(=O)Nc3c(C)cccc3Cl)s2)cc(N2CCN(CCO)CC2)n1 [Dasatinib] (partner 0.075 µM)
The gist of the method:
as §1

Compound in the assay “Doramapimod + OSI-027”: Cc1ccc(-n2nc(C(C)(C)C)cc2NC(=O)Nc2ccc(OCCN3CCOCC3)c3ccccc23)cc1 [Doramapimod] + COc1cccc2cc(-c3nc([C@H]4CC[C@H](C(=O)O)CC4)n4ncnc(N)c34)[nH]c12 [OSI-027] (partner 0.5 µM)
A digest of the protocol:
as §1

Compound in the assay “Doramapimod + AZD7762”: Cc1ccc(-n2nc(C(C)(C)C)cc2NC(=O)Nc2ccc(OCCN3CCOCC3)c3ccccc23)cc1 [Doramapimod] + NC(=O)Nc1cc(-c2cccc(F)c2)sc1C(=O)N[C@H]1CCCNC1 [AZD7762] (partner 0.2 µM)
The gist of the method: as §1

Take NCI-H322M: the relative viability with IPA-3 + Palbociclib (first compound 0.2 µM) was 0.48; with IPA-3 + Palbociclib (first compound 0.6325 µM), 0.452; with IPA-3 + Palbociclib (first compound 2 µM), 0.433; in the assay with IPA-3 + Palbociclib (first compound 6.325 µM), 0.525; with IPA-3 + Palbociclib (first compound 20 µM), 0.514; with IPA-3 + Dasatinib (first compound 0.2 µM) it was 0.228. Moreover, the relative viability with IPA-3 + Dasatinib (first compound 0.6325 µM) stood at 0.248; in the assay with IPA-3 + Dasatinib (first compound 2 µM), 0.248; with IPA-3 + Dasatinib (first compound 6.325 µM) it was 0.309; with IPA-3 + Dasatinib (first compound 20 µM), 0.264; with Doramapimod + OSI-027 (first compound 0.02 µM), 0.577; in the assay with Doramapimod + OSI-027 (first compound 0.06325 µM), 0.579. Also, the relative viability in the assay with Doramapimod + OSI-027 (first compound 0.2 µM) came to 0.562; in the assay with Doramapimod + OSI-027 (first compound 0.6325 µM) it was 0.522; with Doramapimod + OSI-027 (first compound 2 µM), 0.527; with Doramapimod + AZD7762 (first compound 0.02 µM), 0.564; with Doramapimod + AZD7762 (first compound 0.06325 µM), 0.593; with Doramapimod + AZD7762 (first compound 0.2 µM) it was 0.52. For the same cell line, the relative viability with Doramapimod + AZD7762 (first compound 0.6325 µM) was 0.484; with Doramapimod + AZD7762 (first compound 2 µM), 0.687.
Consider NCI-H358, for which the relative viability with IPA-3 + Palbociclib (first compound 0.2 µM) worked out at 0.141; in the assay with IPA-3 + Palbociclib (first compound 0.6325 µM), 0.117; with IPA-3 + Palbociclib (first compound 2 µM) it was 0.153; in the assay with IPA-3 + Palbociclib (first compound 6.325 µM) it was 0.14; in the assay with IPA-3 + Palbociclib (first compound 20 µM), 0.157; in the assay with IPA-3 + Dasatinib (first compound 0.2 µM), 0.219. For the same cell line, the relative viability with IPA-3 + Dasatinib (first compound 0.6325 µM) amounted to 0.145; with IPA-3 + Dasatinib (first compound 2 µM), 0.186; with IPA-3 + Dasatinib (first compound 6.325 µM) it was 0.213; in the assay with IPA-3 + Dasatinib (first compound 20 µM), 0.158; with Doramapimod + OSI-027 (first compound 0.02 µM), 0.746; in the assay with Doramapimod + OSI-027 (first compound 0.06325 µM) it was 0.699. Besides, the relative viability amounted to 0.634 with Doramapimod + OSI-027 (first compound 0.2 µM); 0.858 in the assay with Doramapimod + OSI-027 (first compound 0.6325 µM); 0.681 in the assay with Doramapimod + OSI-027 (first compound 2 µM); 0.486 in the assay with Doramapimod + AZD7762 (first compound 0.02 µM); 0.522 with Doramapimod + AZD7762 (first compound 0.06325 µM); 0.438 with Doramapimod + AZD7762 (first compound 0.2 µM). Further, the relative viability with Doramapimod + AZD7762 (first compound 0.6325 µM) was 0.363; with Doramapimod + AZD7762 (first compound 2 µM), 0.38.
As to NCI-H441, the relative viability was found to be 0.244 with IPA-3 + Palbociclib (first compound 0.2 µM); 0.213 with IPA-3 + Palbociclib (first compound 0.6325 µM); 0.198 with IPA-3 + Palbociclib (first compound 2 µM); 0.169 in the assay with IPA-3 + Palbociclib (first compound 6.325 µM); 0.185 with IPA-3 + Palbociclib (first compound 20 µM); 0.796 in the assay with IPA-3 + Dasatinib (first compound 0.2 µM). Further, the relative viability was 0.295 with IPA-3 + Dasatinib (first compound 0.6325 µM); 0.486 with IPA-3 + Dasatinib (first compound 2 µM); 0.502 in the assay with IPA-3 + Dasatinib (first compound 6.325 µM); 0.438 with IPA-3 + Dasatinib (first compound 20 µM); 0.709 in the assay with Doramapimod + OSI-027 (first compound 0.02 µM); 0.512 with Doramapimod + OSI-027 (first compound 0.06325 µM). Further, the relative viability stood at 0.591 with Doramapimod + OSI-027 (first compound 0.2 µM); 0.475 with Doramapimod + OSI-027 (first compound 2 µM); 1.07 in the assay with Doramapimod + AZD7762 (first compound 0.02 µM); 1.28 in the assay with Doramapimod + AZD7762 (first compound 0.06325 µM); 1.21 with Doramapimod + AZD7762 (first compound 0.2 µM); 0.98 with Doramapimod + AZD7762 (first compound 0.6325 µM). Moreover, in the assay with Doramapimod + AZD7762 (first compound 2 µM), the relative viability was 0.961.
For the cell line NCI-H460, the relative viability stood at 0.203 with IPA-3 + Palbociclib (first compound 0.2 µM); 0.108 with IPA-3 + Palbociclib (first compound 0.6325 µM); 0.145 with IPA-3 + Palbociclib (first compound 2 µM); 0.19 with IPA-3 + Palbociclib (first compound 6.325 µM); 0.057 with IPA-3 + Palbociclib (first compound 20 µM); 0.757 with IPA-3 + Dasatinib (first compound 0.2 µM). Further, the relative viability in the assay with IPA-3 + Dasatinib (first compound 0.6325 µM) was found to be 0.45; in the assay with IPA-3 + Dasatinib (first compound 2 µM), 0.422; with IPA-3 + Dasatinib (first compound 6.325 µM) it was 0.539; with IPA-3 + Dasatinib (first compound 20 µM), 0.363; in the assay with Doramapimod + OSI-027 (first compound 0.02 µM), 0.612; in the assay with Doramapimod + OSI-027 (first compound 0.06325 µM), 0.721. In addition, the relative viability came to 0.658 in the assay with Doramapimod + OSI-027 (first compound 0.2 µM); 0.753 in the assay with Doramapimod + OSI-027 (first compound 0.6325 µM); 0.585 in the assay with Doramapimod + OSI-027 (first compound 2 µM); 0.658 with Doramapimod + AZD7762 (first compound 0.02 µM); 0.702 with Doramapimod + AZD7762 (first compound 0.06325 µM); 0.726 with Doramapimod + AZD7762 (first compound 0.2 µM). Further, the relative viability in the assay with Doramapimod + AZD7762 (first compound 0.6325 µM) stood at 0.805; in the assay with Doramapimod + AZD7762 (first compound 2 µM), 0.531.
